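Growth conditions: 96-well plates. Treatment: test compound, 48 hours, 5 concentrations. Analysis: linear interpolation between bracketing concentrations; unreached endpoints set to highest concentration. At the TGI there is no net growth.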
Assays:
Assay in all cases: NCI-60 cell line screen, 48 h
[1] = tested on: A549 NSCLC
[2] = tested on: ACHN renal
[3] = tested on: COLO 205 colon
[4] = tested on: EKVX NSCLC
[5] = tested on: HCT-15 colon
[6] = tested on: HOP-62 NSCLC
[7] = tested on: HOP-92 NSCLC
[8] = tested on: HS 578T breast
[9] = tested on: HT29 colon
[10] = tested on: IGROV1 ovarian
[11] = tested on: LOX IMVI melanoma
[12] = tested on: M14 melanoma
[13] = tested on: MALME-3M melanoma
[14] = tested on: MDA-MB-231 breast
[15] = tested on: NCI-H460 lung
[16] = tested on: NCI-H522 lung
[17] = tested on: NCI/ADR-RES ovarian
[18] = tested on: OVCAR-3 ovarian
[19] = tested on: OVCAR-4 ovarian
[20] = tested on: OVCAR-8 ovarian
[21] = tested on: PC-3 prostate
[22] = tested on: SF-268 CNS
[23] = tested on: SF-295 CNS
[24] = tested on: SK-MEL-2 melanoma
[25] = tested on: SK-MEL-5 melanoma
[26] = tested on: SK-OV-3 ovarian
[27] = tested on: SN12C renal
[28] = tested on: SNB-75 CNS
[29] = tested on: SR leukemia
[30] = tested on: SW-620 colon
[31] = tested on: T-47D breast
[32] = tested on: UACC-257 melanoma
[33] = tested on: UACC-62 melanoma

Measured: TGI

c1cc2nnc1SCCSCCSCCSc1ccc(nn1)SCCSCCSCCS2
> 100 µM: all assays above

Source: PubChem BioAssay (NCI)
